Data as given in PMC2774621, “Homogenous Fluorescent Assays for Characterizing Small-Molecule Activators of AMP-Activated Protein Kinase (AMPK)” (Current Chemical Genomics, 2008).

Key:
AMPK α1β1γ1 [1] = biological target: T1, AMPK α1β1γ1 (Homo sapiens, UniProt P54619+Q13131); experiment: Radiometric kinase assay (SAMS peptide, 32P-ATP); type: biochemical; settings: ATP 35 µM, SAMS 200 µM
T1 construct: made in house; host or cells: Sf9 insect cells (baculovirus)

AMPK α1β1γ1 [2] = biological target: T1, AMPK α1β1γ1; experiment: TR-FRET activity assay (LanthaScreen, fluorescein-CREBtide); type: biochemical; settings: ATP 50 µM, substrate 400 nM, read-out: Activator EC50
AMPK α1β1γ1 [3] = biological target: T1, AMPK α1β1γ1; experiment: FRET-based kinase activity assay (Z'-LYTE S/T23 peptide); type: biochemical; settings: ATP 50 µM, substrate 2 µM
Protocol: Kinase reactions were performed in a 10 µL assay volume at room temperature in 384-well low volume plates (Corning model 3676) using the same assay buffer as the radiometric assay. Inhibitors and activators were prepared as described for the radiometric assays. Assays were performed as follows: 2.5 µL of the inhibitor or activator working stock was added to a 5 µL solution of kinase and substrate, followed by 2.5 µL of ATP to start the assay. All assays were performed in quadruplicate. The final concentration of Z’-LYTE™ S/T23 peptide substrate in the reaction was 2 µM. AMPK α1β1γ1 was used at 79 ng/mL (0.42 nM) in the inhibition experiments and 41 ng/mL (0.22 nM) in the activation experiments, at an ATP concentration of 50 µM. AMPK α2β1γ1 was used at 177 ng/mL (0.92 nM) in the inhibition experiments and 41 ng/mL (0.22 nM) in the activation experiments, at an ATP concentration of 150 µM. After one hour, 5 µL of protease solution was added to a final well volume of 15 µL. After a 1 hour incubation at room temperature the assay plate was read on a Tecan Safire plate reader using an excitation wavelength of 400 nm (12 nm bandpass), and emission wavelengths of 445 nm (12 nm bandpass) and 520 nm (12 nm bandpass). The FRET ratio was calculated as the intensity of the donor signal divided by the intensity of the acceptor signal. The extent of substrate phosphorylation was calculated from the FRET ratio as described previously.
Data analysis and curve-fitting was performed using GraphPad Prism software (GraphPad Software, Inc, San Diego CA).

[4] = test system: partially purified human AMPK; parameters: method as in PMID 8185610; settings: cited from earlier work
[5] = test system: partially purified rat AMPK; parameters: method as in PMID 8185610; settings: cited from earlier work
rat liver AMPK = settings: rat liver AMPK; cited from earlier work

T1 sequence (Q13131 whole entry): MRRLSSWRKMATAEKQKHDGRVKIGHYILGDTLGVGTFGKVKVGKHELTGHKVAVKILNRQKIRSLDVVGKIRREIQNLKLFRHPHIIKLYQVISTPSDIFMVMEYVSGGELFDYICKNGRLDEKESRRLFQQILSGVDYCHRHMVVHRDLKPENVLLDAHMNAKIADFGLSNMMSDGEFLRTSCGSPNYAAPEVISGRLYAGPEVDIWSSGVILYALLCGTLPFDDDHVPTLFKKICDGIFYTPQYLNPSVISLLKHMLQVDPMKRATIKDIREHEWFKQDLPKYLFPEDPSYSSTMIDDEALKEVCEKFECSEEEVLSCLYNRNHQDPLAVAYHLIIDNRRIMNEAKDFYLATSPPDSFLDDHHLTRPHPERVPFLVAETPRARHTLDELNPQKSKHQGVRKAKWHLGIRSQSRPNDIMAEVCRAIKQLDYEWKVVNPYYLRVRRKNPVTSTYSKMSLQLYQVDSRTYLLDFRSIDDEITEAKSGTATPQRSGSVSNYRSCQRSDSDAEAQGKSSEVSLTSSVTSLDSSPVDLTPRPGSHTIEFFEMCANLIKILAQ
T1 sequence (Q9Y478 whole entry partner): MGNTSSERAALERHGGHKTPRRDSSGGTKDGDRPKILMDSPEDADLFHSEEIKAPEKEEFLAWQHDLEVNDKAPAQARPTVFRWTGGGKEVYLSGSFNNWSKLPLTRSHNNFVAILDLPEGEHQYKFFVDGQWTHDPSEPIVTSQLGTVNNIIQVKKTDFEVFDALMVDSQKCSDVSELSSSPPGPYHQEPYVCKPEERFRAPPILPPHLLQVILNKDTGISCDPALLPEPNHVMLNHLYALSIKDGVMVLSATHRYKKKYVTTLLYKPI
T1 sequence (P54619 whole entry): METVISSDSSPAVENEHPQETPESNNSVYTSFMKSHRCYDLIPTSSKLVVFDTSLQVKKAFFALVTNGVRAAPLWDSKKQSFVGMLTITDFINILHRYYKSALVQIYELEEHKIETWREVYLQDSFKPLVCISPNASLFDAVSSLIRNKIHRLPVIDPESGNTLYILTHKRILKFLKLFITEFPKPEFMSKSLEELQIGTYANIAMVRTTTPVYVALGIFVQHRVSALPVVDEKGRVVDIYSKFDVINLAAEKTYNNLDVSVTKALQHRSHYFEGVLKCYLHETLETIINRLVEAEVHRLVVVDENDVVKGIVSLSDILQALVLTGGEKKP

Row | Compound | Max. fold-activation (AMPK α1β1γ1 [1]) | EC50 (AMPK α1β1γ1 [1]; read-out: Activator EC50) | EC50 (AMPK α1β1γ1 [2]) | Max. fold-activation (AMPK α1β1γ1 [3]) | EC50 (AMPK α1β1γ1 [3]; read-out: Activator EC50) | fold stimulation (maximal extent of activation) [4] | fold stimulation (maximal extent of activation) ([5]; partially purified rat AMPK) | concentration above which activity is inhibited ([5]; rat AMPK) | EC50 ([5]; rat AMPK, read-out: half-maximal stimulatory concentration) | IC50 (rat liver AMPK)
1 | Nc1ncnc2c1ncn2[C@@H]1O[C@H](COP(O)(O)=S)[C@@H](O)[C@H]1O [ATMP, adenosine 5′-O-thiomonophosphate] | 1.7 fold | 700 nM | 250 nM | 3.3 fold | 350 nM | 2.5 fold | 3 fold | above 25 µM | 650 nM | –
2 | c1cc(-c2cnn3cc(-c4ccc(OCCN5CCCCC5)cc4)cnc23)ccn1 [Cpd C] | – | – | – | – | – | – | – | – | – | 109 nM
